What was measured:
[1] = biological target: T1, malate-quinone oxidoreductase (PfMQO) (Plasmodium falciparum, UniProt C6KT09); experiment: malate:dUQ/DCIP reductase activity in mitochondrial fraction of PfMQO-expressing yeast, with ΔMdh1 as negative control; type: biochemical
T1 construct: gene PF3D7_0616800; native full-length PfMQO from codon-optimized cDNA, expressed in ΔMdh1 yeast mitochondria
T1 sequence (C6KT09 1-521): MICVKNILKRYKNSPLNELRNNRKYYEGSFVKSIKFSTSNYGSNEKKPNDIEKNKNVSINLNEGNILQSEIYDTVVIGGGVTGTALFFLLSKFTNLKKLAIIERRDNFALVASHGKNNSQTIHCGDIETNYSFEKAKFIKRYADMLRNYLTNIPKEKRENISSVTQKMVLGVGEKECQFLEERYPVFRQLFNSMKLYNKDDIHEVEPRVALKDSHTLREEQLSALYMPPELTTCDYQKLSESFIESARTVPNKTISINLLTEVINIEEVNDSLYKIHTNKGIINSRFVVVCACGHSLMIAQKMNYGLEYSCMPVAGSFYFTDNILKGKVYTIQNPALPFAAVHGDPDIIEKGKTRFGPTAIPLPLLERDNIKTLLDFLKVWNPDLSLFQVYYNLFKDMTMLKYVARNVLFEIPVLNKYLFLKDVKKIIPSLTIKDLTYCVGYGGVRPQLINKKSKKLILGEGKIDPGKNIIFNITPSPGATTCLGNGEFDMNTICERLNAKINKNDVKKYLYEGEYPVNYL

[2] = biological target: T2, yeast succinate dehydrogenase (Saccharomyces cerevisiae, UniProt P21801+P33421+P37298+Q00711); experiment: inhibition of yeast succinate dehydrogenase activity (Fig. S2); type: cell-based
T2 construct: gene SDH1
T2 sequence (Q00711 29-640): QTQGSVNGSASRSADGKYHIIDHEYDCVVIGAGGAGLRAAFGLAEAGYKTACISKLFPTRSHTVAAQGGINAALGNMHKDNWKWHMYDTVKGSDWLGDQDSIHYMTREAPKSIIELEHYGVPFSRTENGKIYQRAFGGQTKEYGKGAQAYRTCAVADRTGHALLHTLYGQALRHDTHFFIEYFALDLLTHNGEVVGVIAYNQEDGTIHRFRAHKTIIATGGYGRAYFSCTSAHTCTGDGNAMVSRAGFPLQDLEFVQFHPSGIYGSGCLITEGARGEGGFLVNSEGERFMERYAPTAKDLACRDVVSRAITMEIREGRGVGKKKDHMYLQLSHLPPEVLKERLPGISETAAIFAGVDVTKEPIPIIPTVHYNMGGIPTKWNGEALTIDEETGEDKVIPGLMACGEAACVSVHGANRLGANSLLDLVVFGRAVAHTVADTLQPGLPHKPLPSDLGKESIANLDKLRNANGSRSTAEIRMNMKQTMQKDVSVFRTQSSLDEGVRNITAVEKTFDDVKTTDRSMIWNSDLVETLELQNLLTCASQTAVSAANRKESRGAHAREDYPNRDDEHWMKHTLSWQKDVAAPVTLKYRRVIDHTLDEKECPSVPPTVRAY
T2 sequence (P21801 21-266): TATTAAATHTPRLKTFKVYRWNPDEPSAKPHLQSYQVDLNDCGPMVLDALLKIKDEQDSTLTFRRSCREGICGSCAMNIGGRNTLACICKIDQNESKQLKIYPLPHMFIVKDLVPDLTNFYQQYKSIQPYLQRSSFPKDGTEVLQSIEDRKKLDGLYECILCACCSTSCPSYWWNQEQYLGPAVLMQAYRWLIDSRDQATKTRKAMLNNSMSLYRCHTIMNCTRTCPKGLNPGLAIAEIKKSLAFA
T2 sequence (P33421 51-198): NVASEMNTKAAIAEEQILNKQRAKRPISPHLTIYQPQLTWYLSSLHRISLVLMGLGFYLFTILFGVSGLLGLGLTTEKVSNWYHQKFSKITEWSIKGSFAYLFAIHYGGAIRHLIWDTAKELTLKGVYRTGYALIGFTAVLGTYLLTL
T2 sequence (P37298 32-181): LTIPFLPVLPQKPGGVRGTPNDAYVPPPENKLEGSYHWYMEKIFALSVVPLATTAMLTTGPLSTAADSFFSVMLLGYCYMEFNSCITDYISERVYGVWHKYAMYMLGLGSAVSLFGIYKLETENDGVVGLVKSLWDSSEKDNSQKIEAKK

`CC(C)=CCC/C(C)=C/CC/C(C)=C/Cc1c(O)c2ccccc2oc1=O` [ferulenol] was tested, and the “malate:dUQ/DCIP reductase activity in mitochondrial fraction of PfMQO-expressing” value [1] was “almost completely suppressed by 1” and the IC50 [2] was about 100 nM.
